Data set [1] is described as follows: Activation of Akt-dependent signalling pathway in rat L6 myotubes assessed as increase in insulin-stimulated myc-tagged GLUT4-mediated 2-[3H]-deoxyglucose uptake at 25 uM incubated for 16 hrs followed by insulin stimulation for 20 mins measured for 5 mins by beta scintillation counting method relative to control.
The nature of data set [2]: Metabolic stability in rat liver microsomes assessed as parent compound remaining after 90 mins in presence of NADPH by HPLC analysis. Type of data set: ADME. The following applies: for remaining at 1.5 h: liver microsomes, read-out: Stability.
Data set [3] in a line: Activation of Akt-dependent signalling pathway in rat L6 myotubes assessed as induction of myc-tagged GLUT4 translocation to cell surface at 25 uM incubated for 16 hrs by O-phenylenediamide based colorimetric assay relative to control.
Data set [4] concerns Rattus norvegicus. Nature of the data set: Antidiabetic activity in overnight fasted STZ-induced albino Sprague-Dawley rat diabetic model assessed as decrease in blood glucose level at 100 mg/kg, po measured up to 5 hrs. The data set is classed as functional.
Data set [5] in a line: Activation of Akt-dependent signalling pathway in rat L6 myotubes assessed as increase in myc-tagged GLUT4-mediated 2-[3H]-deoxyglucose uptake at 25 uM incubated for 16 hrs measured for 5 mins by beta scintillation counting relative to control.
A short description of data set [6]: Activation of Akt-dependent signalling pathway in rat L6 myotubes assessed as increase in myc-tagged GLUT4-mediated 2-[3H]-deoxyglucose uptake incubated for 16 hrs measured for 5 mins by beta scintillation counting.
Data set [7] relates to Rattus norvegicus. In words: Antidiabetic activity in overnight fasted STZ-induced albino Sprague-Dawley rat diabetic model assessed as decrease in blood glucose level at 100 mg/kg, po measured up to 24 hrs. Type of data set: functional.
A short description of data set [8]: Metabolic stability in rat liver microsomes assessed as drug degradation rate constant incubated for 90 mins by HPLC analysis. Type of data set: ADME. The following applies: 1.5 h. (Microsomes from liver hold many membrane-bound enzymes, among them those of drug oxidation.)
Data set [9] in a line: Half life in rat liver microsomes in presence of NADPH by HPLC analysis. Type of data set: ADME. The settings on record: for half-life: liver microsomes.
Data set [10] deals with Mus musculus. In words: Antidiabetic activity in overnight fasted leptin receptor deficient db/db C57BL/KSJ mouse assessed as reduction in postprandial blood glucose AUC at 10 mg/kg, po administered on day 10 post glucose challenge measured up to 120 mins by oral glucose tolerance test relative to control. Type of data set: functional.
Data set [11] concerns Mus musculus. In words: Reversal of insulin resistance in leptin receptor deficient db/db C57BL/KSJ mouse assessed as improvement in HOMA index administered for 15 consecutive days relative to control. The data set is classed as functional.
In data set [12] the test system is Mus musculus. Nature of the data set: Antidiabetic activity in overnight fasted leptin receptor deficient db/db C57BL/KSJ mouse assessed as reduction in postprandial blood glucose AUC at 10 mg/kg, po administered on day 15 post glucose challenge measured up to 120 mins by oral glucose tolerance test relative to control. The data set is classed as functional.
The test system of data set [13] is Mus musculus. Nature of the data set: Antidiabetic activity in leptin receptor deficient db/db C57BL/KSJ mouse assessed as decrease in postprandial blood glucose level at 10 mg/kg, po for 15 consecutive days measured on day 7 to 14 post dose. Type of data set: functional, organism-based.
Data set [14] has as its system Mus musculus. In words: Reversal of insulin resistance in leptin receptor deficient db/db C57BL/KSJ mouse assessed as decrease in serum insulin level administered for 15 consecutive days relative to control. Type of data set: functional.
Data set [15] deals with Mus musculus. In words: Antidiabetic activity in leptin receptor deficient db/db C57BL/KSJ mouse assessed as decrease in fasting blood glucose level administered for 15 consecutive days relative to control. Type of data set: functional.
A short description of data set [16]: Activation of Akt-dependent signaling pathway in rat L6 myotubes assessed as increase in myc-tagged GLUT4-mediated 2-[3H]-deoxyglucose uptake at 10 uM incubated for 16 hrs measured for 5 mins by beta scintillation counting method relative to control.
Data set [17] in a line: Activation of Akt-dependent signalling pathway in rat L6 myotubes assessed as induction of myc-tagged GLUT4 translocation to cell surface at 10 uM incubated for 16 hrs by O-phenylenediamide based colorimetric assay relative to control.
For data set [18], the system named is Mus musculus. In words: Antidiabetic activity in leptin receptor deficient db/db C57BL/KSJ mouse assessed as decrease in postprandial blood glucose level at 30 mg/kg, po for 15 consecutive days measured on day 8 post dose. Type of data set: functional, organism-based.
A short description of data set [19]: Tmax in Sprague-Dawley rat plasma at 100 mg/kg, po administered as single dose by LC-MS/MS analysis. The data set is classed as ADME, organism-based.
Data set [20] is filed under the species Rattus norvegicus. Nature of the data set: Induction of Akt phosphorylation at Ser-473 residue in rat L6 myotubes over-expressing myc-tagged GLUT4 at 25 uM incubated for 16 hrs by Western blot analysis.
Data set [21] deals with Mus musculus. In words: Antidiabetic activity in overnight fasted leptin receptor deficient db/db C57BL/KSJ mouse assessed as reduction in postprandial blood glucose AUC at 30 mg/kg, po administered on day 15 post glucose challenge measured up to 120 mins by oral glucose tolerance test relative to control. Type of data set: functional.
Data set [22] can be described thus: AUC (0 to infinity) in Sprague-Dawley rat plasma at 100 mg/kg, po administered as single dose measured up to 48 hrs post dose by LC-MS/MS analysis. The data set is classed as ADME, organism-based. Further details: dose 100 mg/kg, route oral, time infinity.
Data set [23] in a line: Cmax in Sprague-Dawley rat plasma at 100 mg/kg, po administered as single dose measured up to 48 hrs post dose by LC-MS/MS analysis. The data set is classed as ADME, organism-based. More on the design: dose 100 mg/kg, route oral.
Data set [24] relates to Mus musculus. In words: Antidiabetic activity in overnight fasted leptin receptor deficient db/db C57BL/KSJ mouse assessed as reduction in postprandial blood glucose AUC at 30 mg/kg, po administered on day 10 post glucose challenge measured up to 120 mins by oral glucose tolerance test relative to control. The data set is classed as functional.
For data set [25], the species on record is Rattus norvegicus. Nature of the data set: Induction of Akt phosphorylation at Ser-473 residue in rat L6 myotubes over-expressing myc-tagged GLUT4 at 50 uM incubated for 16 hrs followed by insulin stimulation for 20 mins by Western blot analysis. Background: A western blot detects proteins with antibodies after separation by electrophoresis.

Structures are written as SMILES. The source made the active and inactive calls. No cut-off for these calls is given here.

What is called inhibition in vivo is the percentage by which the read-out fell short of the control. As for `CC(C)=CCC[C@]1(C)C=Cc2c(c(C)cc3c2[nH]c2ccccc23)O1`, the results for the fold change (FC) in data set [1], in data set [3] and in data set [5] were 2.68, 1.41 and 1.26, respectively. Besides, in [2] (microsomes, 1.5 h), the Stability was 61%. Moreover, the inhibition in vivo at 100 mg/kg was determined as 19.3% in the data set with Rattus norvegicus [4] and 23.3% in the data set on Rattus norvegicus [7]. Further, in data set [6], the Activity result is “Dose-dependent effect”. Also, in data set [8], the K was found to be 0.088 min⁻¹. For the same molecule, the t1/2 in data set [9] (microsomes) is recorded as 7.8 min.
On to `CN(C)C(=N)NC(=N)N` [METFORMIN], for which the inhibition in vivo at 100 mg/kg in the data set on Rattus norvegicus [4] was 25.9%; in the data set with Rattus norvegicus [7] it was 36%.
For orientation: half-life means how long it takes for the measured level to halve. Take `COc1ccc2c(c1)[nH]c1c3c(c(C)cc12)OC(C)(C)C=C3`: the values for the fold change (FC) in data set [1], in data set [3] and in [5] were 2.7, 1.33 and 1.34, respectively. Further, the remaining at 1.5 h in [2] came out at 67%. Besides, the inhibition in vivo at 100 mg/kg in the data set on Rattus norvegicus [4] is 24.6%; in the data set on Rattus norvegicus [7], 30.3%. The Activity result in [6] is “Dose-dependent effect”. For the same molecule, the K in data set [8] came out at 0.004 min⁻¹. For the same molecule, in data set [9], the half-life turned out to be 2.83 h.
As to `CCc1ccc(CCOc2ccc(CC3SC(=O)NC3=O)cc2)nc1` (configuration not stated) [PIOGLITAZONE], the inhibition in vivo at 10 mg/kg in the data set on Mus musculus [10] was 30.2%; in the data set with Mus musculus [12] it was 41.4%. Further, the Activity in the data set on Mus musculus [11] worked out at 74.6%. Further, the inhibition result in the data set on Mus musculus [13] was “Active”. Moreover, the “inhibition (INH)” value in the data set with Mus musculus [14] came to 32.3%; with Mus musculus [15] it was 62.4%.
In the case of `CN(CCOc1ccc(CC2SC(=O)NC2=O)cc1)c1ccccn1` (configuration not stated), the fold change (FC) was 2.75 in data set [1], 1.45 in data set [16] and 1.38 in data set [17]. Further, the Activity result in [6] is “Dose-dependent effect”.
Broadly, the Tmax is the time at which the peak concentration occurs. The AUC(0-inf) is the area under the concentration-time curve extrapolated to infinity. One may read the Cmax as the peak of the concentration-time curve. On to `COc1cc2[nH]c3c4c(c(C)cc3c2cc1OC)OC(C)(C)C=C4`, for which the figures for the fold change (FC) in [1], in data set [3] and in [5] were 2.41, 1.29 and 1.42, respectively. Moreover, the inhibition entry in the data set on Mus musculus [18] is “Active”. Also, the Activity is 44.3% with Mus musculus [11] and “Dose-dependent effect” in data set [6]. For the same molecule, the Tmax in data set [19] worked out at 4 h. The remaining at 1.5 h in data set [2] turned out to be 79%. The result in the data set listed under Rattus norvegicus [20] and in the data set listed under Rattus norvegicus [25] was Active. For the same molecule, the inhibition in vivo at 30 mg/kg with Mus musculus [21] turned out to be 28.5%; with Mus musculus [24] it was 21.8%. The same molecule yielded an AUC(0-inf) in data set [22] of 23 µM·h. The same molecule returned a Cmax in data set [23] of 2820 nM. Further, the inhibition in vivo at 100 mg/kg with Rattus norvegicus [4] is 22.5%; in the data set with Rattus norvegicus [7], 30%. Also, the “inhibition (INH)” value in the data set on Mus musculus [14] is 17.2%; in the data set with Mus musculus [15], 40.5%. For the same molecule, the K in data set [8] was 0.003 min⁻¹. Further, the half-life in [9] turned out to be 3.11 h.
As for `COc1ccc2[nH]c3c4c(c(C)cc3c2c1)OC(C)(C)C=C4` [KOENIMBINE], the fold change (FC) in [1] is 2.54; in [3], 1.44; in data set [5], 1.41. For the same molecule, the time to peak (Tmax) in data set [19] came out at 0.83 h. Besides, the remaining at 1.5 h in data set [2] worked out at 58%. In addition, in data set [22], the area under the curve AUC(0-inf) amounted to 9.45 µM·h. Further, the peak level in data set [23] (Cmax) was 1810 nM. For the same molecule, the inhibition in vivo at 100 mg/kg was found to be 15.5% in the data set on Rattus norvegicus [4] and 19.8% with Rattus norvegicus [7]. Moreover, in [6], the Activity result is “Dose-dependent effect”. Besides, the K in data set [8] amounted to 0.005 min⁻¹. The half-life in [9] came to 2.21 h.

The values are drawn from ChEMBL document CHEMBL3853285, “Naturally Occurring Carbazole Alkaloids from Murraya koenigii as Potential Antidiabetic Agents” (J Nat Prod, 2016).
